pEC50: −log10 of the molar value. Read-outs that look alike come from different tables or passages of the source.
What was measured:
[1] = tested on: human iPSC-derived 3D BrainSpheres; test: BrainSphere MEA assay (HD-MEA, 13-day exposure, concentration-response); format: cell-based; settings: for EC (benchmark response 1.349 SD): 312 h; for AC50: Supplement 3 prints it also for curves with hit call 0; on hitc Mean.Spheroid.Burst.Duration: key: 1 (active); 0 (inactive); on hitc Mean.Spheroid.Burst.ISI: key: 1 (active); 0 (inactive); on hitc Mean.Spheroid.Burst.Peak.Firing.Rate: key: 1 (active); 0 (inactive); on hitc Mean.Spheroid.Firing.Rate: key: 1 (active); 0 (inactive); on hitc Mean.Spheroid.IBI: key: 1 (active); 0 (inactive); on hitc Mean.Spheroid.Nonburst.ISI: key: 1 (active); 0 (inactive); on hitc Mean.Spheroid.Spikes.per.Burst.per.Electrode: key: 1 (active); 0 (inactive); on hitc Mean.Spheroid.Spikes.per.Burst: key: 1 (active); 0 (inactive); on hitc Spheroid.Burst.Frequency: key: 1 (active); 0 (inactive); on hitc Spheroid.Spike.Amplitude.90th.Percentile: key: 1 (active); 0 (inactive)
Protocol: A volume of 1 ml of Tergazyme (1% solution in deionized water) was added to each well of the MaxTwo 6-Well Plate (MaxWell Biosystems) and incubated overnight under constant gyratory shaking (88 RPM) at 37 °C and 5% CO2. The next day, Tergazyme solution was removed, and plates were washed with distilled water and ethanol. After remaining ethanol was evaporated, wells were washed with PBS. Then, 200 µl of Poly-D-Lysine (Gibco, A38904 - 01) was added on top of the electrodes and incubated at 37 °C and 5% CO2 for 3 h (humidified). Poly-D-Lysine was then removed, and wells were coated with 100 µl of 0.1 mg/ml laminin coating solution (Sigma-Aldrich, L2020 - 1 mg) and incubated for 2 h at 37 ℃ and 5% CO2 (humidified). The laminin was removed after incubation. Using a 1 ml micropipette, 1 ml of medium containing BrainSpheres (7 weeks differentiated), approximately 25 BrainSpheres per ml, was plated on top of the HD-MEA chip (Fig. 1A). Afterwards, the plate was placed in an incubator at 37 °C and 5% CO2 and moved in circles to accumulate the BrainSpheres on top of the electrode area (Fig. 1A). The plate was kept in an incubator (humidified) for 2 days to allow attachment of the BrainSpheres with no gyratory shaking of the plates.
The MaxTwo high-density microelectrode array system (MaxWell Biosystems AG, Zurich, Switzerland) was used to measure neural activity with MaxTwo 6-well plates, where every well includes an integrated chip with 26,400 platinum electrodes arranged in an area of 3.85 × 2.10 mm^2 ([…]) (Muller et al. [2015]). The data were recorded and analyzed with the MaxLab Live Software (version 22.2.22). First, the MaxLab live ActivityScan Assay was used to identify the activity and positioning of the BrainSpheres on the array by scanning all the 26,400 electrodes in 29 configurations in a well (Assay Parameters: Configuration = Full; Recording time per configuration = 60 s (s)). The settings gain = 512, high-pass-filter (HPF): ~ 1 Hz and spike threshold = 5 X root-mean square (RMS) noise were used for all HD-MEA recordings. Circular regions of interest (ROI) were manually selected in the Activity Map where neuronal activity was apparent by an increased activity (Fig. 2). Over the course of the 13-day experiment, the same selected regions and electrodes were measured using the MaxLab Live Network Assay (600 s recording time).
A custom analysis framework was used to extract the MaxLab Live neuronal metrics for the individual BrainSpheres. For this, electrodes comprising a single ROI (i.e., individual BrainSphere; Fig. 2D) were grouped using distance-based clustering (fcluster method of Scipy library, Python 3.7) and neural metrics were calculated for the clustered electrodes for every ROI separately. Figure 2E presents a raster plot illustrating the activity associated with individual Regions of Interest (ROIs). […] Ten MaxLab Live neural metrics (endpoints) were evaluated from the MaxLab live ActivityScan and Network Assay in this study. See Table 3 for the endpoint definitions, tuned parameters, and activity type (general versus network connectivity).
The BrainSphere MEA assay measured changes in neural activity during a 13-day chemical exposure. The first recording day of the concentration–response screening protocol (day of exposure (DOE) 0) occurred after 7 weeks of BrainSphere differentiation, 48 h after plating on HD-MEA plates (Fig. 1B). The study included at least three biological replicates (one well per plate) from separate experiments (e.g., three different plates on three different days) and each well included multiple BrainSpheres which were considered technical replicates.

[2] = tested on: 2D rat cortical cultures; settings: cytotoxicity LDH, cited from earlier work
[3] = AUC over 13-day exposure, tcplfit2
[4] = tcplfit2 BMD at benchmark response (1.349*SD of baseline controls)
[5] = tcplfit2 output ACC, activity cutoff in Supplemental Table 1

Compound: C/C(=C/C=C/[C@@H](C)C(=O)O)[C@H]1CN[C@H](C(=O)O)[C@H]1CC(=O)O [Domoic acid]
- Difference of minimum potency between BrainSphere MEA assay and rNFA ([1]; 5th percentile of AC50 values by chemical, above 0.5 = more potent in the rNFA): more than 0.5 log10 µM
- hitc Mean.Spheroid.Burst.Duration [1, 3]: 1
- hitc Mean.Spheroid.Burst.ISI [1, 3]: 1
- hitc Mean.Spheroid.Burst.Peak.Firing.Rate [1, 3]: 1
- hitc Mean.Spheroid.Firing.Rate [1, 3]: 1
- hitc Mean.Spheroid.IBI [1, 3]: 1
- hitc Mean.Spheroid.Nonburst.ISI [1, 3]: 1
- hitc Mean.Spheroid.Spikes.per.Burst [1, 3]: 1
- hitc Mean.Spheroid.Spikes.per.Burst.per.Electrode [1, 3]: 1
- hitc Spheroid.Burst.Frequency [1, 3]: 1
- hitc Spheroid.Spike.Amplitude.90th.Percentile [1, 3]: 0
- EC (benchmark response 1.349 SD) ([1]; Homo sapiens, read-out: BMD Mean.Spheroid.Burst.ISI): 2.6 µM
- EC (benchmark response 1.349 SD) ([1]; Homo sapiens, read-out: BMD Mean.Spheroid.Nonburst.ISI): 0.99 µM
- pEC50 ([1]; Homo sapiens, read-out: Mean potency): 5.48
- pEC50 ([1]; Homo sapiens, read-out: Minimum potency): 5.89
- AC50 ([1]; Homo sapiens, read-out: ac50 Mean.Spheroid.Burst.Duration, concentration at 50% maximal activity): 3.6 µM
- AC50 ([1]; Homo sapiens, read-out: ac50 Mean.Spheroid.Burst.ISI, concentration at 50% maximal activity): 4.4 µM
- AC50 ([1]; Homo sapiens, read-out: ac50 Mean.Spheroid.Burst.Peak.Firing.Rate, concentration at 50% maximal activity): 3.1 µM
- AC50 ([1]; Homo sapiens, read-out: ac50 Mean.Spheroid.Firing.Rate, concentration at 50% maximal activity): 5.4 µM
- AC50 ([1]; Homo sapiens, read-out: ac50 Mean.Spheroid.IBI, concentration at 50% maximal activity): 3.55 µM
- AC50 ([1]; Homo sapiens, read-out: ac50 Mean.Spheroid.Nonburst.ISI, concentration at 50% maximal activity): 1 µM
- AC50 ([1]; Homo sapiens, read-out: ac50 Mean.Spheroid.Spikes.per.Burst, concentration at 50% maximal activity): 3 µM
- AC50 ([1]; Homo sapiens, read-out: ac50 Mean.Spheroid.Spikes.per.Burst.per.Electrode, concentration at 50% maximal activity): 1.7 µM
- AC50 ([1]; Homo sapiens, read-out: ac50 Spheroid.Burst.Frequency, concentration at 50% maximal activity): 4.2 µM
- AC50 ([1]; Homo sapiens, read-out: ac50 Spheroid.Spike.Amplitude.90th.Percentile, concentration at 50% maximal activity): 15 µM
- Percent active ([1]; metrics active out of the total number of metrics screened): 90%
- AC50 ([1]; read-out: ac50 Mean.Spheroid.Burst.Duration, concentration at 50% maximal activity, listed as L-Domoic acid): 3.58 µM
- AC50 ([1]; read-out: ac50 Mean.Spheroid.Burst.ISI, concentration at 50% maximal activity, listed as L-Domoic acid): 4.36 µM
- AC50 ([1]; read-out: ac50 Mean.Spheroid.Burst.Peak.Firing.Rate, concentration at 50% maximal activity, listed as L-Domoic acid): 3.1 µM
- AC50 ([1]; read-out: ac50 Mean.Spheroid.Firing.Rate, concentration at 50% maximal activity, listed as L-Domoic acid): 5.41 µM
- AC50 ([1]; read-out: ac50 Mean.Spheroid.Nonburst.ISI, concentration at 50% maximal activity, listed as L-Domoic acid): 1.02 µM
- AC50 ([1]; read-out: ac50 Mean.Spheroid.Spikes.per.Burst.per.Electrode, concentration at 50% maximal activity, listed as L-Domoic acid): 1.71 µM
- AC50 ([1]; read-out: ac50 Mean.Spheroid.Spikes.per.Burst, concentration at 50% maximal activity, listed as L-Domoic acid): 2.98 µM
- AC50 ([1]; read-out: ac50 Spheroid.Burst.Frequency, concentration at 50% maximal activity, listed as L-Domoic acid): 4.17 µM
- BMD Mean.Spheroid.Burst.Duration [1, 4]: 2 µM
- BMD Mean.Spheroid.Burst.Peak.Firing.Rate [1, 4]: 2 µM
- BMD Mean.Spheroid.Firing.Rate [1, 4]: 6.6 µM
- BMD Mean.Spheroid.IBI [1, 4]: 1.9 µM
- BMD Mean.Spheroid.Spikes.per.Burst [1, 4]: 1.3 µM
- BMD Mean.Spheroid.Spikes.per.Burst.per.Electrode [1, 4]: 1.3 µM
- BMD Spheroid.Burst.Frequency [1, 4]: 4.4 µM
- BMD Spheroid.Spike.Amplitude.90th.Percentile [1, 4]: 14 µM
- ACC Mean.Spheroid.Burst.Duration [1, 5]: 1.8 µM
- ACC Mean.Spheroid.Burst.ISI [1, 5]: 1.8 µM
- ACC Mean.Spheroid.Burst.Peak.Firing.Rate [1, 5]: 1.8 µM
- ACC Mean.Spheroid.Firing.Rate [1, 5]: 9.9 µM
- ACC Mean.Spheroid.IBI [1, 5]: 3.1 µM
- ACC Mean.Spheroid.Nonburst.ISI [1, 5]: 1 µM
- ACC Mean.Spheroid.Spikes.per.Burst [1, 5]: 2.8 µM
- ACC Mean.Spheroid.Spikes.per.Burst.per.Electrode [1, 5]: 1.5 µM
- ACC Spheroid.Burst.Frequency [1, 5]: 3.8 µM
- ACC Spheroid.Spike.Amplitude.90th.Percentile [1, 5]: 18 µM
- hitc CCTE_Shafer_MEA_dev_LDH ([2]; rNFA mc5 hit call): 1
- AC50 ([2]; read-out: ac50 CCTE_Shafer_MEA_dev_LDH, rNFA mc5): 6.75 µM
